Source: ChEMBL document CHEMBL1201862, “PubChem BioAssay data set” (2004)
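Values below derive from 48-hour exposures of cells grown in 96-well plates, with endpoints linearly interpolated between the two concentrations bracketing the appropriate inhibition level. GI50: concentration for 50% inhibition of growth.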 Active and inactive are the calls of the source. Cut-off read from the data, not from the text of the source: active = GI50 up to about 1.1 µM and inactive = higher.

Columns and labels:
Test in all cases: inhibition of tumour cell growth, NCI panel, 48 h
[1] = tested on: 786-0
[2] = tested on: A498
[3] = tested on: A549
[4] = tested on: ACHN
[5] = tested on: BT-549
[6] = tested on: CAKI-1
[7] = tested on: COLO 205
[8] = tested on: DU-145
[9] = tested on: EKVX
[10] = tested on: HCT-116
[11] = tested on: HCT-15
[12] = tested on: HOP-62
[13] = tested on: HOP-92
[14] = tested on: HT-29
[15] = tested on: Hs-578T
[16] = tested on: IGROV-1
[17] = tested on: K562
[18] = tested on: KM12
[19] = tested on: LOX IMVI
[20] = tested on: M14
[21] = tested on: MCF7
[22] = tested on: MDA-MB-231
[23] = tested on: MDA-MB-435
[24] = tested on: MDA-N
[25] = tested on: Malme-3M
[26] = tested on: NCI-H226
[27] = tested on: NCI-H23
[28] = tested on: NCI-H460
[29] = tested on: NCI-H522
[30] = tested on: NCI/ADR-RES
[31] = tested on: OVCAR-3
[32] = tested on: OVCAR-4
[33] = tested on: OVCAR-5
[34] = tested on: OVCAR-8
[35] = tested on: PC-3
[36] = tested on: RPMI-8226
[37] = tested on: RXF 393
[38] = tested on: SF-268
[39] = tested on: SF-295
[40] = tested on: SF-539
[41] = tested on: SK-MEL-2
[42] = tested on: SK-MEL-5
[43] = tested on: SK-OV-3
[44] = tested on: SN12C
[45] = tested on: SNB-19
[46] = tested on: SNB-75
[47] = tested on: SR
[48] = tested on: T47D
[49] = tested on: TK-10
[50] = tested on: U-251
[51] = tested on: UACC-257
[52] = tested on: UACC-62
[53] = tested on: UO-31
[54] = tested on: CCRF-CEM
[55] = tested on: HCC 2998
[56] = tested on: HL-60
[57] = tested on: MOLT-4
[58] = tested on: SK-MEL-28
[59] = tested on: SW-620

Measured: GI50

Nc1nc(N)c(Cn2ccnc2)c(O)n1
inactive: [1] > 100 µM | [2] > 100 µM | [3] > 100 µM | [4] > 100 µM | [5] > 100 µM | [6] > 100 µM | [7] > 100 µM | [8] > 100 µM | [9] > 100 µM | [10] > 100 µM | [12] > 100 µM | [13] > 100 µM | [14] > 100 µM | [15] > 100 µM | [16] > 100 µM | [18] > 100 µM | [19] > 100 µM | [20] > 100 µM | [21] > 100 µM | [22] > 100 µM | [23] > 100 µM | [24] > 100 µM | [25] > 100 µM | [26] > 100 µM | [27] > 100 µM | [28] > 100 µM | [29] > 100 µM | [30] > 100 µM | [31] > 100 µM | [32] > 100 µM | [33] > 100 µM | [34] > 100 µM | [35] > 100 µM | [36] > 100 µM | [37] > 100 µM | [38] > 100 µM | [39] > 100 µM | [40] > 100 µM | [41] > 100 µM | [42] > 100 µM | [43] > 100 µM | [44] 5.15 µM | [45] > 100 µM | [46] > 100 µM | [47] > 100 µM | [48] > 100 µM | [49] > 100 µM | [50] > 100 µM | [51] > 100 µM | [52] > 100 µM | [53] > 100 µM
> 100 µM: [11]
active: [17] 0.049 µM

NC1N=C(c2ccc(Cl)cc2)C2=C(N1)c1ccccc1CC2 (stereo not given)
inactive: [1] 13.2 µM | [2] 49.5 µM | [3] 20.3 µM | [4] > 51.2 µM | [5] > 100 µM | [6] 76.4 µM | [54] 3.93 µM | [7] 33.9 µM | [8] 52.4 µM | [9] 14.2 µM | [10] 8.39 µM | [56] 2.81 µM | [12] > 40.6 µM | [13] 33.6 µM | [14] 3.16 µM | [15] 8.71 µM | [16] 5.68 µM | [17] 3.48 µM | [18] 4.03 µM | [19] 4.13 µM | [20] 19.9 µM | [21] 6.55 µM | [22] 10.5 µM | [23] 2.62 µM | [24] 2.29 µM | [57] 3.17 µM | [25] 10.3 µM | [26] 14.4 µM | [27] 30 µM | [28] 8.51 µM | [29] 4.07 µM | [30] 13 µM | [31] 16.7 µM | [32] 13.4 µM | [33] 51.1 µM | [34] 25.6 µM | [35] 23.1 µM | [36] 2.66 µM | [37] 7.96 µM | [38] > 54 µM | [39] 22.3 µM | [40] 14.6 µM | [58] 64.7 µM | [41] 9.08 µM | [42] 14.7 µM | [43] > 100 µM | [44] 19.9 µM | [45] > 68.5 µM | [46] 1.71 µM | [59] 10.8 µM | [48] 10.4 µM | [49] 48.2 µM | [50] 25.6 µM | [51] > 67.3 µM | [52] 15 µM | [53] 32.7 µM
active: [55] 0.156 µM
3.58 µM: [11]

COC(=O)CN(CC(=O)NCCNC(=O)OC(C)(C)C)C1CCCCC1N(CC(=O)OC)CC(=O)OC (stereo not given)
> 100 µM: [11]
inactive: [1] > 100 µM | [2] > 100 µM | [3] > 100 µM | [4] > 100 µM | [5] > 100 µM | [6] > 100 µM | [54] > 100 µM | [7] > 100 µM | [8] > 100 µM | [9] > 100 µM | [55] > 100 µM | [10] > 100 µM | [56] > 100 µM | [12] > 100 µM | [14] > 100 µM | [15] > 100 µM | [16] > 100 µM | [17] > 100 µM | [18] > 100 µM | [19] > 100 µM | [21] > 100 µM | [22] > 100 µM | [23] > 100 µM | [24] > 100 µM | [57] > 100 µM | [25] > 100 µM | [26] 48 µM | [27] > 100 µM | [28] > 100 µM | [29] > 100 µM | [30] > 100 µM | [31] > 100 µM | [33] > 100 µM | [34] > 100 µM | [35] > 100 µM | [36] > 100 µM | [38] > 100 µM | [39] > 100 µM | [40] > 100 µM | [58] > 100 µM | [41] > 100 µM | [42] > 100 µM | [43] > 100 µM | [44] > 100 µM | [45] > 100 µM | [47] > 100 µM | [59] > 100 µM | [48] > 100 µM | [49] > 100 µM | [50] > 100 µM | [51] > 100 µM | [52] > 100 µM | [53] > 100 µM
